Legend:
[1] = target: T1, Sorcin calcium-binding domain (SCBD) (Homo sapiens, UniProt P30626); assay: intrinsic tryptophan/tyrosine fluorescence quenching titration (ex […] nm), two-site fit; conditions: Tris-HCl 10 mM pH 7.5, 0.5 uM EDTA, 25 C; stronger of two sites; unreliable (KD1 below protein concentration, large errors)
T1 construct: gene SRI; dimer
T1 sequence (P30626 32-198): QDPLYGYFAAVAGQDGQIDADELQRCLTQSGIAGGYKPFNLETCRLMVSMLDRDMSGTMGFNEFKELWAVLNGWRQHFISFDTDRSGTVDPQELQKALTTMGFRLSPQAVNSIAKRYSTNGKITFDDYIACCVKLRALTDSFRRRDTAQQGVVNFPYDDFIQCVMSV

[2] = target: T2, Sorcin (Homo sapiens, UniProt P30626); assay: SPR, immobilized Sorcin, one-site fit; assay type: binding
T2 construct: gene SRI; full-length wild type; immobilized by amine coupling for SPR; homodimer
T2 sequence (P30626 1-198): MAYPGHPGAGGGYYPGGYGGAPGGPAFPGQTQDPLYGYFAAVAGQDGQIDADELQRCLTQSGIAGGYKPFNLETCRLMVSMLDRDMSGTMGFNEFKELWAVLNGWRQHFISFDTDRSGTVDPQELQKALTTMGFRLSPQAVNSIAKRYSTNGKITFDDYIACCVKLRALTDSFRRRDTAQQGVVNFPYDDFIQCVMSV

[3] = target: T2, Sorcin; assay: SPR (OneStep), immobilized Sorcin; assay type: binding; conditions: HEPES 20 mM pH 7.4, NaCl 150 mM, 2% DMSO, 25 C; CaCl2 or EDTA not told

Structure (SMILES) | Kd [3] | also measured
COc1cccc2c1C(=O)c1c(O)c3c(c(O)c1C2=O)C[C@@](O)(C(=O)CO)C[C@@H]3O[C@H]1C[C@H](N)[C@H](O)[C@H](C)O1 [doxorubicin] | – | affinity constant [1]: 1.4 ± 1 nM
[NH2][Pt]([NH2])([Cl])[Cl] [cisplatin] | – | Kd [2]: 1700 nM
CC[C@]1(O)C[C@@H]2CN(CCc3c([nH]c4ccccc34)[C@@](C(=O)OC)(c3cc4c(cc3OC)N(C)[C@H]3[C@@](O)(C(=O)OC)[C@H](OC(C)=O)[C@]5(CC)C=CCN6CC[C@]43[C@@H]65)C2)C1 [vinblastine] | Sorcin is able to bind doxorubicin, paclitaxel and vinblastine, with high affinity | –
CC(=O)O[C@H]1C(=O)[C@@]2(C)[C@H]([C@H](OC(=O)c3ccccc3)[C@]3(O)C[C@H](OC(=O)[C@H](O)[C@@H](NC(=O)c4ccccc4)c4ccccc4)C(C)=C1C3(C)C)[C@]1(OC(C)=O)CO[C@@H]1C[C@@H]2O [paclitaxel] | Sorcin is able to bind doxorubicin, paclitaxel and vinblastine, with high affinity | –
